pIC50: −log10 of the molar value.
Assays:
KIT = target: T1, KIT (Homo sapiens, UniProt P10721); test: Caliper mobility shift kinase inhibition assay, recombinant KIT; assay type: biochemical; settings: recombinant KIT 0.9 nM, ATP 400 μM, incubation 17 hr (Table 2)
T1 construct: purchased BPS 40250

FLT3 = target: T2, FLT3 (Homo sapiens, UniProt P36888); test: Caliper mobility shift kinase inhibition assay, recombinant FLT3; assay type: biochemical; settings: recombinant FLT-3 0.1 nM, ATP 95 μM, incubation 3 hr, room temperature
T2 construct: purchased ThermoFisher PV3182
T2 sequence (P36888 27-993): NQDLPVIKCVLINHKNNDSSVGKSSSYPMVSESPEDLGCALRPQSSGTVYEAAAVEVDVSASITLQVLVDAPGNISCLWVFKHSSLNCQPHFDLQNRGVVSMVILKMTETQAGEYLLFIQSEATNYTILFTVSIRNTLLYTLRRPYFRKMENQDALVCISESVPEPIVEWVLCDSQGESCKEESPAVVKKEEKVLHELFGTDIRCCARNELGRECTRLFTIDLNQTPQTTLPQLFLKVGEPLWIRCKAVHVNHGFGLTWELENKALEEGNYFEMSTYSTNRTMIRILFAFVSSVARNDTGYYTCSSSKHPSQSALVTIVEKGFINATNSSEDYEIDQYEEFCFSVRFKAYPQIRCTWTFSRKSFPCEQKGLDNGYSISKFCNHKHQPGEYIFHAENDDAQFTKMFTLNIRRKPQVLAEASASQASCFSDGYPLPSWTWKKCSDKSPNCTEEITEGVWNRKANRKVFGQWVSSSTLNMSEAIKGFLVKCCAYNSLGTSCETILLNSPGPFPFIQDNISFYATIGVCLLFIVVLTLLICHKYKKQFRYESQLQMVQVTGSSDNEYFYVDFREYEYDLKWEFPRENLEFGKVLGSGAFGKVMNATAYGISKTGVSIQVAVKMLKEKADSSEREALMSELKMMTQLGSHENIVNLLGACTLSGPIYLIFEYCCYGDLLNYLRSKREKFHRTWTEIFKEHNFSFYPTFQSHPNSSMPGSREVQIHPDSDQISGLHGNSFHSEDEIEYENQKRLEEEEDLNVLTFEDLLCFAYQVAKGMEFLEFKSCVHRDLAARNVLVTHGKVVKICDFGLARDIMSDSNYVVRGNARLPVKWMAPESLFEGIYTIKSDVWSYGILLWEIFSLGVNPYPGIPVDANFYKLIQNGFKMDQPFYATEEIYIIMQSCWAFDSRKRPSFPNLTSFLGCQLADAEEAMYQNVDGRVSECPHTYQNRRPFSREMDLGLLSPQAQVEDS
Protocol: Compounds' inhibition of recombinant kinases (FLT3, KIT) was measured using Caliper mobility shift assay, which is based on the difference in capillary electrophoresis mobility of a fluorescent-tagged peptide as a result of a phosphorylation by the kinase under study. Reactions were started by the addition of various concentrations of a compound (originally in DMSO solution) to a kinase solution in assay buffer followed by addition of a mixture of ATP and a fluorescent-tagged peptide substrate in assay buffer. Concentrations of the enzyme, ATP and thepeptide were pre-optimized so that 15% substrate conversion to ensure initial velocity measurements. After incubation for 3 hours at room temperature, the kinase reaction was quenched by the addition of a concentrated EDTA solution before analysis on a LabChip EZ Reader II to yield percentage inhibition by comparing to the DMSO control. Table 2 below summarizes the assay conditions for the characterization of the kinase inhibition properties of the disclosed compounds.

MV4-11 = test: Cell viability assay (CellTiter-Glo), FLT3 cell-based assay; settings: Homo sapiens, MV4-11 cells, 72 hr at 37° C., 0.1% DMSO
Protocol: Cell viability assay was performed based on the following brief procedures. Cells were plated at the density of 5K/well with volume of 180 μL in 96-well white plate and clear bottom plates. 20 μL of veh. or compound was added at proper concentration to the well. The final volume is 200 μL, with final conc. of DMSO=0.1%, 11 points, triplicates. The cells were then treated at 37° C. in the TC incubator for 72 hr. Equal volume (200 μL) of CellTiter-Glo reagent (Promega) was added to the well and protect from light at room temperature for 15 min. The chemiluminescence was measured with EnSight (Perkin Elmer). GraphPad Prism non-linear regression, Log[inhibitor] response with four parameters were used to calculate GI50.

T1 sequence (P10721 26-976): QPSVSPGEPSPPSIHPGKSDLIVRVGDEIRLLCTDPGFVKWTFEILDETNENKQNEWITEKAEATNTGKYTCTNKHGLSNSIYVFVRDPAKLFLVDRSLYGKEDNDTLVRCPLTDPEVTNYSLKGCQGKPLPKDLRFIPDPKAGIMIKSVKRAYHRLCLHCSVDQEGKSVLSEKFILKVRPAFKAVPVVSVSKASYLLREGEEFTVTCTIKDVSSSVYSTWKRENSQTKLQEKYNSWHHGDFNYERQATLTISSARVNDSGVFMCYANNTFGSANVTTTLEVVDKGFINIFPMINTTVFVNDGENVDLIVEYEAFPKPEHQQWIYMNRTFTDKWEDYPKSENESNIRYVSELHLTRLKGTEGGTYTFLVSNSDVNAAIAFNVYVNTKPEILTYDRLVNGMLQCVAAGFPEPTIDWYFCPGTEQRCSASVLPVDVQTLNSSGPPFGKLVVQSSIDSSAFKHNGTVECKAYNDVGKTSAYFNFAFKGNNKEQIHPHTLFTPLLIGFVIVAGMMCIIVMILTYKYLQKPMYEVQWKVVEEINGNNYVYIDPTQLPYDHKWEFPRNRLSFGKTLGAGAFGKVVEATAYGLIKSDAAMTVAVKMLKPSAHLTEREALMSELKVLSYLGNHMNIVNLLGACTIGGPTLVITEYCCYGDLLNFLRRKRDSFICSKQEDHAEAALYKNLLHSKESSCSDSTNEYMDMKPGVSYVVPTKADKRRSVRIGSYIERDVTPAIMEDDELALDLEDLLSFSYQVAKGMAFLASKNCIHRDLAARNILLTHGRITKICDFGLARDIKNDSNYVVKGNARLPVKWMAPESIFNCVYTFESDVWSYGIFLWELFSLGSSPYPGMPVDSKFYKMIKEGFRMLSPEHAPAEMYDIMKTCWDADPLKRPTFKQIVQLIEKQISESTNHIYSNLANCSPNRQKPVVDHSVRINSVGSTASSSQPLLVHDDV

| SMILES | pIC50 (KIT) | pIC50 (FLT3) | GI50 (MV4-11) |
| --- | --- | --- | --- |
| CN(C)C/C=C/C(=O)N1CCC[C@H]1C(=O)NCCn1cnc2cnc(Nc3ncc(-c4ccc(F)cc4)s3)cc21 [Example 3, (2S)-1-[(E)-4-(dimethylamino)but-2-enoyl]-N-[2-[6-[[5-(4-fluorophenyl)thiazol-2-yl]amino]imidazo[4,5-c]pyridin-1-yl]ethyl]pyrrolidine-2-carboxamide] | 8.00 to 9.00 | > 9.00 | 10 to 100 nM |
| C=C(F)C(=O)N1CCC[C@H]1C(=O)NCCn1cnc2cnc(Nc3ncc(-c4ccc(F)cc4)s3)cc21 [Example 4] | 8.00 to 9.00 | 8.00 to 9.00 | < 10 nM |
| C=CC(=O)N1CCOC[C@H]1C(=O)NCCn1cnc2cnc(Nc3ncc(-c4ccc(F)cc4)s3)cc21 [Example 6, (3S)-N-[2-[6-[[5-(4-fluorophenyl)thiazol-2-yl]amino]imidazo[4,5-c]pyridin-1-yl]ethyl]-4-prop-2-enoyl-morpholine-3-carboxamide] | – | – | < 10 nM |
| C=CC(=O)N1CC[C@H]1C(=O)NCCn1cnc2cnc(Nc3ncc(-c4ncccc4F)s3)cc21 [Example 7, (2S)-N-[2-[6-[[5-(3-fluoro-2-pyridyl)thiazol-2-yl]amino]imidazo [4,5-c]pyridin-1-yl]ethyl]-1-prop-2-enoyl-azetidine-2-carboxamide] | > 9.00 | > 9.00 | – |
| CN(C)C/C=C/C(=O)N1CCOC[C@H]1C(=O)NCCn1cnc2cnc(Nc3ncc(-c4ncccc4F)s3)cc21 [Example 17, (3S)-4-[(E)-4-(dimethylamino)but-2-enoyl]-N-[2-[6-[[5-(3-fluoro-2-pyridyl)thiazol-2-yl]amino]imidazo[4,5-c]pyridin-1-yl]ethyl]morpholine-3-carboxamide] | > 9.00 | > 9.00 | – |
| C=CC(=O)N1C[C@H](O)C[C@H]1C(=O)NCCn1cnc2cnc(Nc3ncc(-c4ncccc4F)s3)cc21 [Example 18, (2S,4R)-N-[2-[6-[[5-(3-fluoro-2-pyridyl)thiazol-2-yl]amino]imidazo[4,5-c]pyridin-1-yl]ethyl]-4-hydroxy-1-prop-2-enoyl-pyrrolidine-2-carboxamide] | 8.00 to 9.00 | > 9.00 | – |
| C=C(F)C(=O)N1C[C@H](O)C[C@H]1C(=O)NCCn1cnc2cnc(Nc3ncc(-c4ncccc4F)s3)cc21 [Example 19, (2S,4R)-1-(2-fluoroprop-2-enoyl)-N-[2-[6-[[5-(3-fluoro-2-pyridyl)thiazol-2-yl]amino]imidazo[4,5-c]pyridin-1-yl]ethyl]-4-hydroxy-pyrrolidine-2-carboxamide] | 7.00 to 8.00 | 8.00 to 9.00 | – |
| CN(C)C/C=C/C(=O)N1C[C@H](O)C[C@H]1C(=O)NCCn1cnc2cnc(Nc3ncc(-c4ncccc4F)s3)cc21 [Example 20, (2S,4R)-1-[(E)-4-(dimethylamino)but-2-enoyl]-N-[2-[6-[[5-(3-fluoro-2-pyridyl)thiazol-2-yl]amino]imidazo[4,5-c]pyridin-1-yl]ethyl]-4-hydroxy-pyrrolidine-2-carboxamide] | > 9.00 | > 9.00 | – |

Further lines, results first:

| pIC50 (KIT) | pIC50 (FLT3) | GI50 (MV4-11) | SMILES |
| --- | --- | --- | --- |
| 8.00 to 9.00 | > 9.00 | 10 to 100 nM | C=CC(=O)N1CCOC[C@H]1C(=O)NCCn1cnc2cnc(Nc3ncc(-c4ccncc4)s3)cc21 [Example 1, (3S)-4-prop-2-enoyl-N-[2-[6-[[5-(4-pyridyl)thiazol-2-yl]amino]imidazo[4,5-c]pyridin-1-yl]ethyl]morpholine-3-carboxamide] |
| 8.00 to 9.00 | 8.00 to 9.00 | < 10 nM | C/C=C\C(=O)N1CCC[C@H]1C(=O)NCCn1cnc2cnc(Nc3ncc(-c4ccc(F)cc4)s3)cc21 [Example 2, (2S)-1-[(Z)-but-2-enoyl]-N-[2-[6-[[5-(4-fluorophenyl)thiazol-2-yl]amino]imidazo[4,5-c]pyridin-1-yl]ethyl]pyrrolidine-2-carboxamide] |
| 8.00 to 9.00 | 8.00 to 9.00 | – | C=C(F)C(=O)N1CCOC[C@H]1C(=O)NCCn1cnc2cnc(Nc3ncc(-c4ncccc4F)s3)cc21 [Example 16, (3S)-4-(2-fluoroprop-2-enoyl)-N-[2-[6-[[5-(3-fluoro-2-pyridyl)thiazol-2-yl]amino]imidazo[4,5-c]pyridin-1-yl]ethyl]morpholine-3-carboxamide] |

Source: patent publication US20250170107A1, “IMIDAZOPYRIDINE INHIBITORS OF TYROSINE KINASE” (BridGene Biosciences. Inc., priority 2022, published 2025)
